Structures are written as SMILES. Bounds are passed on as bounds.

This is an account of results in patent US10077261B2, “Imidazolin-5-one derivative useful as FASN inhibitors for the treatment of cancer” (Janssen Pharmaceutica NV, priority 2012, dated 2018).

For test [1], the system named is A2780 ovarian cells. As to the kind of experiment: A2780 ovarian cell proliferation assay in lipid reduced medium, with palmitate (MTT). Type of test: cell-based. Conditions: Homo sapiens, A2780, 96 h; read-out: pIC50 A2780 Ovarian Cell, With Palmitate (converted). Summed up:
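In this palmitate-supplemented format, compound dilutions (30 μM down to 0.01 μM) are added to cells in lipid-reduced serum with 25 μM palmitate, 0.2% fatty-acid-free BSA and 0.25% ethanol. After four days (96 h) MTT absorbance at 544 nm is recorded and fitted by minimum sum of squares.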

The target in test [2] is Fatty Acid Synthase Keto-reductase Domain (FASN KR) (Homo sapiens, UniProt P49327). Put plainly: Fatty Acid Synthase keto-reductase domain (FASN KR) inhibition, NADPH oxidation at 340 nm.
Fatty Acid Synthase Keto-reductase Domain (FASN KR), sequence (P49327 whole entry, the tested form may be a part): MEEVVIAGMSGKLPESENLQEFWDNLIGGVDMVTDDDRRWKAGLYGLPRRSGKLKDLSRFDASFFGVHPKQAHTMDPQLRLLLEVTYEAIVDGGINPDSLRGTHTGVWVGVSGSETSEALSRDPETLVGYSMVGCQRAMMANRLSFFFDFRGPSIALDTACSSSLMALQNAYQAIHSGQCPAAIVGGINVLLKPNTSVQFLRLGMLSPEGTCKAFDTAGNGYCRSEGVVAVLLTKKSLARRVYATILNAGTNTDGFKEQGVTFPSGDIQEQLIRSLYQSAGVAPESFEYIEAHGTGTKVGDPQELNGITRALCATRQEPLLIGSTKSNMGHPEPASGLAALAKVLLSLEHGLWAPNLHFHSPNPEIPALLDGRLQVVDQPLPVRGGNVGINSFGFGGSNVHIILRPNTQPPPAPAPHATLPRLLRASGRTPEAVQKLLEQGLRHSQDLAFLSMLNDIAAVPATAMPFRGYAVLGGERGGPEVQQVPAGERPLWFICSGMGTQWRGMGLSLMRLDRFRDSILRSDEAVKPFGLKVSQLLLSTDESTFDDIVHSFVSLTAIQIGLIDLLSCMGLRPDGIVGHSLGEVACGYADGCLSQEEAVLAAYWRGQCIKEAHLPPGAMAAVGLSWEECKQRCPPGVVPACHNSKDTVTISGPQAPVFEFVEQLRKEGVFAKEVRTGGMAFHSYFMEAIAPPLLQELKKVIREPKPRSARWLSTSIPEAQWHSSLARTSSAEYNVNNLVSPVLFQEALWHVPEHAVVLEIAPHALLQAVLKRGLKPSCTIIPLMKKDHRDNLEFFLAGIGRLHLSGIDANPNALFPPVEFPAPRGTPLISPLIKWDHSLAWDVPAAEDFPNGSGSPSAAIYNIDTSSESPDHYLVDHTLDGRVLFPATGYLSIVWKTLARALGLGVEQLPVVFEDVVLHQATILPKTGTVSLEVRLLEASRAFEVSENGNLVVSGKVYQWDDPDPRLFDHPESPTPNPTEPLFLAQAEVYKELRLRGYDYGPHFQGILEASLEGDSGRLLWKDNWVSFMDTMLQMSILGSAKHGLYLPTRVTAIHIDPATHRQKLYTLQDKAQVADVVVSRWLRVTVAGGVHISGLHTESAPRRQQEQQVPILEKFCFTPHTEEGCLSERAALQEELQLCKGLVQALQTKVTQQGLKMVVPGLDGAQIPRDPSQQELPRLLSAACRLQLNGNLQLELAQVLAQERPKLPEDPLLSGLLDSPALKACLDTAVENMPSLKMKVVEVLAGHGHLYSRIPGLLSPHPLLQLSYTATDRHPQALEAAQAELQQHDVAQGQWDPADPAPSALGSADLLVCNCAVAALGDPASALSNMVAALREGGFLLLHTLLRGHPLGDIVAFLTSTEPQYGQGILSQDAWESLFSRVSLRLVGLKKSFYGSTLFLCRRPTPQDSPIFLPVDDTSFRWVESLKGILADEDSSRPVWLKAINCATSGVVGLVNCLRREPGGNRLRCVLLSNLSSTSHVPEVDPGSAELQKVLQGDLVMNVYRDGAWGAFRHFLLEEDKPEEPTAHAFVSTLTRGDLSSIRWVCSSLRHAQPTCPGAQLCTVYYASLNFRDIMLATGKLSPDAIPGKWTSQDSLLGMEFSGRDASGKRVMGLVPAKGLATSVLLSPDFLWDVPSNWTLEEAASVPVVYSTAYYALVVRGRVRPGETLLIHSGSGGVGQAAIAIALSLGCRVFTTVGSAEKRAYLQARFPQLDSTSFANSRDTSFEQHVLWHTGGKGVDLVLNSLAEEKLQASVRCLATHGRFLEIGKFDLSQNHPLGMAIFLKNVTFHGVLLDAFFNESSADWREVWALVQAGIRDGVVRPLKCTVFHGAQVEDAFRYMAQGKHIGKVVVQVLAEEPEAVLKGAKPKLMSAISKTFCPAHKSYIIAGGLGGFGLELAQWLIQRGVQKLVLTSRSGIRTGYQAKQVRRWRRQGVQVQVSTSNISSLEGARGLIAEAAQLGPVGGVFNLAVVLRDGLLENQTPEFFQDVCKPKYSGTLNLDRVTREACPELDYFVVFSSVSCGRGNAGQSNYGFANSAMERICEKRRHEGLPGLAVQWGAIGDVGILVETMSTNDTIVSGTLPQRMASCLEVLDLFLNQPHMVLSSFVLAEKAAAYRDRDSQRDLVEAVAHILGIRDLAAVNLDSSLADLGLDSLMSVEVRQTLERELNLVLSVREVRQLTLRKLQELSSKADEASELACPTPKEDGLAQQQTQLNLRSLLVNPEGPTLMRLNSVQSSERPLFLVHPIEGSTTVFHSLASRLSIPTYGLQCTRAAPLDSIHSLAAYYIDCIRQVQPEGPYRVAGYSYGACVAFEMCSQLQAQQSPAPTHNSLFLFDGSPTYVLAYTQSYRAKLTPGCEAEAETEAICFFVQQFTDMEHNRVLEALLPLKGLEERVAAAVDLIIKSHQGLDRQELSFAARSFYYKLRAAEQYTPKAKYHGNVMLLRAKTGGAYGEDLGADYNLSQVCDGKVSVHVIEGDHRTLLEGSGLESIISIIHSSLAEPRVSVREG
Protocol: After 20 minutes incubation at room temperature the plate was measured again (T2).
The decrease in absorbance was calculated as (Absorbance before incubation T1)−(Absorbance following incubation T2).
A plot of Controlmin versus test compound concentration was fitted to a 4-parameter logistic curve using a non-linear least squares regression method.
In test [3] the target is T1, hFASN enzyme (full length) (Homo sapiens, UniProt P49327).
T1 construct: 10 μL hFASN enzyme (full length, 300 ng, purified in house); made in house
T1 sequence (P49327 whole entry): as the sequence (P49327 whole entry, the tested form may be a part) above
Put plainly: Fatty Acid Synthase (FASN) inhibition scintillation proximity assay. It counts as biochemical. The note with it: for inhibition at 10 µM: read-out: Human FASN % inhibition @ 10 μM, 10 μM test compound; for IC50: read-out: Human FASN pIC50 (converted). In a few lines: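 Proximity read-out: hydrophobic ^3H-palmitate formed from ^3H-acetyl-CoA and malonyl-CoA binds streptavidin imaging beads, imaged at 610±20 nm at least 24 h after stopping. Enzyme was in-house purified full-length hFASN, 300 ng, in pH 7.5 phosphate/DTT buffer; compound series 30 μM down to 0.01 μM, normalized to controls, 4-parameter fit.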

In test [4] the test system is A2780 ovarian cells. Put plainly: A2780 ovarian cell proliferation assay in lipid reduced medium, without palmitate (MTT). It counts as cell-based. Conditions: Homo sapiens, A2780, 96 h; read-out: pIC50 A2780 Ovarian Cell, Without Palmitate (converted).

With `O=C(C1CC1)N1CC[C@@H](CN2C(=O)C3(CCCC3)N=C2c2ccc(-c3ccc4[nH]ccc4c3)cc2)C1` [compound 4, 3-{[(3R)-1-(Cyclopropylcarbonyl)pyrrolidin-3-yl]methyl}-2-[4-(1H-indol-5-yl)phenyl]-1,3-diazaspiro[4.4]non-1-en-4-one], the IC50 is 5130 nM in test [1], 45.7 nM in test [2], 33.9 nM in test [3] and 58.9 nM in test [4]. In addition, the inhibition at 10 µM in test [3] was found to be 103%.
The corresponding values for `O=C(C1CC1)N1CCC(CN2C(=O)C3(CC3)N=C2c2ccc(-c3ccc4[nH]ccc4c3)cc2)CC1` [compound 10, 6-{[1-(Cyclopropylcarbonyl)piperidin-4-yl]methyl}-5-[4-(1H-indol-5-yl)phenyl]-4,6-diazaspiro[2.4]hept-4-en-7-one] are greater than 10000 nM, 501 nM, 204 nM, 871 nM and 89.7%.
Taken in the same sequence, the figures for `O=C(C1CC1)N1CC[C@@H](CN2C(=O)C3(CCCC3)N=C2c2ccc(-c3ccc4ncccc4c3)cc2)C1` [compound 11, 3-{[(3R)-1-(Cyclopropylcarbonyl)pyrrolidin-3-yl]methyl}-2-(4-quinolin-6-ylphenyl)-1,3-diazaspiro[4.4]non-1-en-4-one] were greater than 10000 nM, 2040 nM, 933 nM, roughly 3020 nM and 82.2%.
Consider `O=C(C1CC1)N1CC[C@@H](CN2C(=O)C3(CCCC3)N=C2c2ccc(-c3ccc4cnccc4c3)cc2)C1` [compound 12, 3-{[(3R)-1-(Cyclopropylcarbonyl)pyrrolidin-3-yl]methyl}-2-(4-isoquinolin-6-ylphenyl)-1,3-diazaspiro[4.4]non-1-en-4-one], for which the IC50 in test [1] is 3800 nM; in test [2], 49 nM; in test [3], 25.7 nM; in test [4], roughly 36.3 nM. In test [3], the inhibition at 10 µM turned out to be 99.4%.
The corresponding values for `COC(=O)N1CCC2(CC1)N=C(c1ccc(-c3ccc4occc4c3)cc1)N(C[C@@H]1CCN(C(=O)C3CC3)C1)C2=O` [compound 14, (R)-Methyl 2-(4-(benzofuran-5-yl)phenyl)-3-((1-(cyclopropanecarbonyl)pyrrolidin-3-yl)methyl)-4-oxo-1,3,8-triazaspiro[4.5]dec-1-ene-8-carboxylate] are greater than 10000 nM, 302 nM, 148 nM, 1230 nM and 98.2%.
Taken in the same sequence, the figures for `COC(=O)N1CCC2(CC1)N=C(c1ccc(-c3ccc4[nH]ccc4c3)cc1)N(C[C@@H]1CCN(C(=O)C3CC3)C1)C2=O` [compound 15, Methyl 3-{[(3R)-1-(cyclopropylcarbonyl)pyrrolidin-3-yl]methyl}-2-[4-(1H-indol-5-yl)phenyl]-4-oxo-1,3,8-triazaspiro[4.5]dec-1-ene-8-carboxylate] were greater than 10000 nM, 70.8 nM, 43.7 nM, roughly 63.1 nM and 113%.
Taken in the same sequence, the figures for `COC(=O)N1CCC2(CC1)N=C(c1ccc(-c3ccc4[nH]ccc4c3)cc1)N(CC1CN(C(=O)C3CC3)C1)C2=O` [compound 17, Methyl 3-{[1-(cyclopropylcarbonyl)azetidin-3-yl]methyl}-2-[4-(1H-indol-5-yl)phenyl]-4-oxo-1,3,8-triazaspiro[4.5]dec-1-ene-8-carboxylate] were greater than 10000 nM, 347 nM, 229 nM, 398 nM and 97%.
With `O=C(C1CC1)N1CCC(CN2C(=O)C3(CC3)N=C2c2ccc(-c3ccc4cnccc4c3)cc2)CC1` [compound 20, 6-{[1-(Cyclopropylcarbonyl)piperidin-4-yl]methyl}-5-(4-isoquinolin-6-ylphenyl)-4,6-diazaspiro[2.4]hept-4-en-7-one], the IC50 in test [1] is 8130 nM; in test [2], 676 nM; in test [3] it was 158 nM; in test [4], 646 nM. In test [3], the inhibition at 10 µM is 101%.
The corresponding values for `Cn1ncc2ccc(-c3ccc(C4=NC5(CC5)C(=O)N4C[C@@H]4CCN(C(=O)C5CC5)C4)cc3)cc21` [compound 27, 6-{[(3R)-1-(Cyclopropylcarbonyl)pyrrolidin-3-yl]methyl}-5-[4-(1-methyl-1H-indazol-6-yl)phenyl]-4,6-diazaspiro[2.4]hept-4-en-7-one] are greater than 10000 nM, 120 nM, 70.8 nM, 251 nM and 100%.
`O=C(C1CC1)N1CCC(CN2C(=O)C3(CC3)N=C2c2ccc(-c3ccc4[nH]ncc4c3)cc2)CC1` [compound 29, 6-{[1-(Cyclopropylcarbonyl)piperidin-4-yl]methyl}-5-[4-(1H-indazol-5-yl)phenyl]-4,6-diazaspiro[2.4]hept-4-en-7-one]: the IC50 in test [1] is greater than 10000 nM; in test [2], 2340 nM; in test [3] it was 933 nM; in test [4], 3390 nM. The inhibition at 10 µM in test [3] was 81.7%.
`O=C(C1CC1)N1CC[C@@H](CN2C(=O)C3(CC3)N=C2c2ccc(-c3ccc4ccncc4c3)cc2)C1` [compound 30, 6-{[(3R)-1-(Cyclopropylcarbonyl)pyrrolidin-3-yl]methyl}-5-(4-isoquinolin-7-ylphenyl)-4,6-diazaspiro[2.4]hept-4-en-7-one]: the IC50 in test [1] is greater than 10000 nM; in test [2] it was 282 nM; in test [3], 57.5 nM; in test [4] it was 380 nM. For the same molecule, in test [3], the inhibition at 10 µM came to 108%.
Taken in the same sequence, the figures for `O=C(C1CC1)N1CC[C@@H](CN2C(=O)C3(CC3)N=C2c2ccc(-c3ccc4[nH]ccc4c3)cc2)C1` [compound 31, 6-{[(3R)-1-(Cyclopropylcarbonyl)pyrrolidin-3-yl]methyl}-5-[4-(1H-indol-5-yl)phenyl]-4,6-diazaspiro[2.4]hept-4-en-7-one] were greater than 10000 nM, 35.5 nM, 21.9 nM, 28.8 nM and 107%.
As for `O=C(C1CC1)N1CC[C@@H](CN2C(=O)C3(CCCC3)N=C2c2ccc(-c3ccc4cc[nH]c4c3)cc2)C1` [compound 33, 3-{[(3R)-1-(Cyclopropylcarbonyl)pyrrolidin-3-yl]methyl}-2-[4-(1H-indol-6-yl)phenyl]-1,3-diazaspiro[4.4]non-1-en-4-one], the IC50 in test [1] was greater than 10000 nM; in test [2], 56.2 nM; in test [3], 25.7 nM; in test [4], 251 nM. Further, the inhibition at 10 µM in test [3] is 109%.
Taken in the same sequence, the figures for `Cn1ncc2ccc(-c3ccc(C4=NC5(CCCC5)C(=O)N4C[C@@H]4CCN(C(=O)C5CC5)C4)cc3)cc21` [compound 34, 3-{[(3R)-1-(Cyclopropylcarbonyl)pyrrolidin-3-yl]methyl}-2-[4-(1-methyl-1H-indazol-6-yl)phenyl]-1,3-diazaspiro[4.4]non-1-en-4-one] were greater than 10000 nM, 355 nM, 117 nM, 776 nM and 102%.
The corresponding values for `O=C(C1CC1)N1CC[C@@H](CN2C(=O)C3(CCCC3)N=C2c2ccc(-c3nc4ccccc4o3)cc2)C1` [compound 36, 2-[4-(1,3-Benzoxazol-2-yl)phenyl]-3-{[(3R)-1-(cyclopropylcarbonyl)pyrrolidin-3-yl]methyl}-1,3-diazaspiro[4.4]non-1-en-4-one] are greater than 10000 nM, 1410 nM, 550 nM, 3470 nM and 96.2%.
Taken in the same sequence, the figures for `Cn1ncc2ccc(-c3ccc(C4=NC5(CC5)C(=O)N4CC4CN(C(=O)C5CC5)C4)cc3)cc21` [compound 38, 6-{[1-(Cyclopropylcarbonyl)azetidin-3-yl]methyl}-5-[4-(1-methyl-1H-indazol-6-yl)phenyl]-4,6-diazaspiro[2.4]hept-4-en-7-one] were greater than 10000 nM, 646 nM, 269 nM, 1200 nM and 94.9%.
In the case of `O=C(C1CC1)N1CC(CN2C(=O)C3(CC3)N=C2c2ccc(-c3ccc4[nH]ccc4c3)cc2)C1` [compound 40, 6-{[1-(Cyclopropylcarbonyl)azetidin-3-yl]methyl}-5-[4-(1H-indol-5-yl)phenyl]-4,6-diazaspiro[2.4]hept-4-en-7-one], the IC50 in test [1] was greater than 10000 nM; in test [2], 42.7 nM; in test [3], 18.6 nM; in test [4], 72.4 nM. In addition, in test [3], the inhibition at 10 µM is 106%.
`N#Cc1ccc(-c2ccc(C3=NC4(CC4)C(=O)N3CC3CN(C(=O)C4CC4)C3)cc2)cc1` [compound 41, 4′-(6-{[1-(Cyclopropylcarbonyl)azetidin-3-yl]methyl}-7-oxo-4,6-diazaspiro[2.4]hept-4-en-5-yl)biphenyl-4-carbonitrile]: the IC50 was greater than 10000 nM in test [1], 851 nM in test [2], 457 nM in test [3] and 1200 nM in test [4]. Besides, the inhibition at 10 µM in test [3] was found to be 92.6%.
